Data published in the supplement of paper PMC10307832.

Tests used:
Test in all cases: relative viability (nuclei count vs DMSO), 5 days (fraction); higher = more cells survive
HCC-15 = system: HCC-15
Procedure, shortened: (§1)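 Lung cancer cell lines in 1536-well plates were dosed by pin tool the day after seeding, either with one drug alone or with a fixed anchor-drug dose plus five library-drug doses (not always all listed) in √10 steps. After 5 days, cells were fixed and their nuclei stained in one step (final 0.05% Triton X-100, 1% formaldehyde, 1 ug/ml Hoechst), then counted on 4× images. Relative viability is the nuclei count in treated wells divided by that in vehicle wells. Values are medians of duplicate plates.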

LXF-289 = system: LXF-289
Procedure, shortened: as §1

LC-2-ad = system: LC-2-ad
Procedure, shortened: as §1

NCI-H2126 = system: NCI-H2126
Procedure, shortened: as §1

HCC-78 = system: HCC-78
Procedure, shortened: as §1

NCI-H358 = system: NCI-H358
Procedure, shortened: as §1

RERF-LC-KJ = system: RERF-LC-KJ
Procedure, shortened: as §1

A-427 = system: A-427
Procedure, shortened: as §1

NCI-H1734 = system: NCI-H1734
Procedure, shortened: as §1

PC-3 [JPC-3] = system: PC-3 [JPC-3]
Procedure, shortened: as §1

SK-LU-1 = system: SK-LU-1
Procedure, shortened: as §1

HOP-62 = system: HOP-62
Procedure, shortened: as §1

NCI-H647 = system: NCI-H647
Procedure, shortened: as §1

NCI-H1792 = system: NCI-H1792
Procedure, shortened: as §1

NCI-H1915 = system: NCI-H1915
Procedure, shortened: as §1

NCI-H2228 = system: NCI-H2228
Procedure, shortened: as §1

NCI-H1755 = system: NCI-H1755
Procedure, shortened: as §1

NCI-H2347 = system: NCI-H2347
Procedure, shortened: as §1

NCI-H1975 = system: NCI-H1975
Procedure, shortened: as §1

SW 1573 = system: SW 1573
Procedure, shortened: as §1

Question: How did the relative viability (HCC-15; first compound 0.08 µM) turn out when COc1nc(C)cnc1NS(=O)(=O)c1cccnc1-c1ccc(-c2nnco2)cc1 [Zibotentan] + CS(=O)(=O)CCNCc1ccc(-c2ccc3ncnc(Nc4ccc(OCc5cccc(F)c5)c(Cl)c4)c3c2)o1 [Lapatinib] (partner 2 µM) was run?
Answer: 0.954

Question: What about the relative viability (HCC-15; first compound 0.253 µM) of the same molecule?
Answer: 0.858

Question: And the relative viability (HCC-15; first compound 0.8 µM)?
Answer: 0.951

Question: What about the relative viability (HCC-15; first compound 2.53 µM) of the same molecule?
Answer: 0.828

Question: And the relative viability (LXF-289; first compound 0.08 µM)?
Answer: 0.873

Question: And the relative viability (LXF-289; first compound 0.253 µM)?
Answer: 0.886

Question: And the relative viability (LXF-289; first compound 0.8 µM)?
Answer: 0.93

Question: And the relative viability (LXF-289; first compound 2.53 µM)?
Answer: 0.878

Question: What about the relative viability (LC-2-ad; first compound 0.08 µM) of the same molecule?
Answer: 0.962

Question: And the relative viability (LC-2-ad; first compound 0.253 µM)?
Answer: 0.944

Question: And the relative viability (LC-2-ad; first compound 0.8 µM)?
Answer: 1.06

Question: And the relative viability (LC-2-ad; first compound 2.53 µM)?
Answer: 1.01

Question: What about the relative viability (NCI-H2126; first compound 0.08 µM) of the same molecule?
Answer: 0.79

Question: And the relative viability (NCI-H2126; first compound 0.253 µM)?
Answer: 0.724

Question: And the relative viability (NCI-H2126; first compound 0.8 µM)?
Answer: 0.662

Question: What about the relative viability (NCI-H2126; first compound 2.53 µM) of the same molecule?
Answer: 0.779

Question: And the relative viability (HCC-78; first compound 0.08 µM)?
Answer: 0.844

Question: And the relative viability (HCC-78; first compound 0.253 µM)?
Answer: 0.701

Question: What about the relative viability (HCC-78; first compound 0.8 µM) of the same molecule?
Answer: 0.847

Question: What about the relative viability (HCC-78; first compound 2.53 µM) of the same molecule?
Answer: 0.788

Question: What about the relative viability (NCI-H358; first compound 0.08 µM) of the same molecule?
Answer: 0.453

Question: What about the relative viability (NCI-H358; first compound 0.8 µM) of the same molecule?
Answer: 0.469

Question: And the relative viability (NCI-H358; first compound 2.53 µM)?
Answer: 0.503

Question: What about the relative viability (RERF-LC-KJ; first compound 0.08 µM) of the same molecule?
Answer: 0.89

Question: What about the relative viability (RERF-LC-KJ; first compound 0.253 µM) of the same molecule?
Answer: 0.807

Question: And the relative viability (RERF-LC-KJ; first compound 0.8 µM)?
Answer: 0.878

Question: What about the relative viability (RERF-LC-KJ; first compound 2.53 µM) of the same molecule?
Answer: 0.845

Question: And the relative viability (A-427; first compound 0.08 µM)?
Answer: 1.08

Question: What about the relative viability (A-427; first compound 0.253 µM) of the same molecule?
Answer: 1.06

Question: What about the relative viability (A-427; first compound 0.8 µM) of the same molecule?
Answer: 1.05

Question: What about the relative viability (A-427; first compound 2.53 µM) of the same molecule?
Answer: 0.984

Question: And the relative viability (NCI-H1734; first compound 0.08 µM)?
Answer: 1.2

Question: What about the relative viability (NCI-H1734; first compound 0.253 µM) of the same molecule?
Answer: 1.04

Question: And the relative viability (NCI-H1734; first compound 0.8 µM)?
Answer: 0.996

Question: And the relative viability (NCI-H1734; first compound 2.53 µM)?
Answer: 1.19

Question: And the relative viability (PC-3 [JPC-3]; first compound 0.08 µM)?
Answer: 0.444

Question: What about the relative viability (PC-3 [JPC-3]; first compound 0.253 µM) of the same molecule?
Answer: 0.458

Question: And the relative viability (PC-3 [JPC-3]; first compound 0.8 µM)?
Answer: 0.421

Question: And the relative viability (PC-3 [JPC-3]; first compound 2.53 µM)?
Answer: 0.48

Question: And the relative viability (SK-LU-1; first compound 0.08 µM)?
Answer: 0.831

Question: And the relative viability (SK-LU-1; first compound 0.253 µM)?
Answer: 0.766

Question: And the relative viability (SK-LU-1; first compound 0.8 µM)?
Answer: 0.928

Question: And the relative viability (SK-LU-1; first compound 2.53 µM)?
Answer: 0.878

Question: And the relative viability (HOP-62; first compound 0.08 µM)?
Answer: 0.957

Question: What about the relative viability (HOP-62; first compound 0.253 µM) of the same molecule?
Answer: 1.12

Question: What about the relative viability (HOP-62; first compound 0.8 µM) of the same molecule?
Answer: 1.22

Question: What about the relative viability (HOP-62; first compound 2.53 µM) of the same molecule?
Answer: 1.25

Question: And the relative viability (NCI-H647; first compound 0.08 µM)?
Answer: 1.23

Question: What about the relative viability (NCI-H647; first compound 0.253 µM) of the same molecule?
Answer: 0.924

Question: What about the relative viability (NCI-H647; first compound 0.8 µM) of the same molecule?
Answer: 0.968

Question: What about the relative viability (NCI-H647; first compound 2.53 µM) of the same molecule?
Answer: 1.06

Question: What about the relative viability (NCI-H1792; first compound 0.08 µM) of the same molecule?
Answer: 1.01

Question: What about the relative viability (NCI-H1792; first compound 0.253 µM) of the same molecule?
Answer: 0.896

Question: And the relative viability (NCI-H1792; first compound 0.8 µM)?
Answer: 0.816

Question: What about the relative viability (NCI-H1792; first compound 2.53 µM) of the same molecule?
Answer: 0.848

Question: What about the relative viability (NCI-H1915; first compound 0.08 µM) of the same molecule?
Answer: 1.03

Question: What about the relative viability (NCI-H1915; first compound 0.253 µM) of the same molecule?
Answer: 0.934

Question: What about the relative viability (NCI-H1915; first compound 0.8 µM) of the same molecule?
Answer: 0.963

Question: What about the relative viability (NCI-H1915; first compound 2.53 µM) of the same molecule?
Answer: 1.03

Question: What about the relative viability (NCI-H2228; first compound 0.08 µM) of the same molecule?
Answer: 1.41

Question: What about the relative viability (NCI-H2228; first compound 0.253 µM) of the same molecule?
Answer: 1

Question: What about the relative viability (NCI-H2228; first compound 0.8 µM) of the same molecule?
Answer: 0.989

Question: What about the relative viability (NCI-H2228; first compound 2.53 µM) of the same molecule?
Answer: 1.1

Question: What about the relative viability (NCI-H1755; first compound 0.08 µM) of the same molecule?
Answer: 1.06

Question: And the relative viability (NCI-H1755; first compound 0.253 µM)?
Answer: 0.988

Question: What about the relative viability (NCI-H1755; first compound 0.8 µM) of the same molecule?
Answer: 1.08

Question: And the relative viability (NCI-H1755; first compound 2.53 µM)?
Answer: 1.05

Question: What about the relative viability (NCI-H2347; first compound 0.08 µM) of the same molecule?
Answer: 1.05

Question: And the relative viability (NCI-H2347; first compound 0.253 µM)?
Answer: 0.941

Question: And the relative viability (NCI-H2347; first compound 0.8 µM)?
Answer: 1.19

Question: And the relative viability (NCI-H2347; first compound 2.53 µM)?
Answer: 0.943

Question: What about the relative viability (NCI-H1975; first compound 0.08 µM) of the same molecule?
Answer: 0.837

Question: And the relative viability (NCI-H1975; first compound 0.253 µM)?
Answer: 0.8

Question: What about the relative viability (NCI-H1975; first compound 0.8 µM) of the same molecule?
Answer: 0.781

Question: And the relative viability (NCI-H1975; first compound 2.53 µM)?
Answer: 0.884

Question: What about the relative viability (SW 1573; first compound 0.08 µM) of the same molecule?
Answer: 1.18

Question: What about the relative viability (SW 1573; first compound 0.253 µM) of the same molecule?
Answer: 1.11

Question: What about the relative viability (SW 1573; first compound 0.8 µM) of the same molecule?
Answer: 1.2

Question: And the relative viability (SW 1573; first compound 2.53 µM)?
Answer: 1.14
